These results are taken from ChEMBL document CHEMBL1146127, “Aminobenzisoxazoles with biaryl P4 moieties as potent, selective, and orally bioavailable factor Xa inhibitors” (Bioorg Med Chem Lett, 2006).

Series [1] can be described thus: in vivo. The following applies: dog.
Series [2] in a line: in vivo. The note with it: dog, po, 0.2 mg/kg.
Series [3] can be described thus: in vivo. The following applies: dog, iv, 0.4 mg/kg.
Series [4] in a line: in vivo. The following applies: dog, iv, 0.4 mg/kg. This is another data set of the same source.

In the series “in vivo [1]”, `Nc1noc2ccc(-n3nc(C(F)(F)F)cc3C(=O)Nc3ccc(-c4ccccc4CN4CCCC4)cc3F)cc12` showed a half-life of 10 h. Further, the bioavailability in the series “in vivo [2]” came to 64%. The Vd in the series “in vivo [3]” was 23 L/kg. Further, in “in vivo [4]”, the clearance is 28.3 mL/min/kg.

By half-life is commonly meant the time needed for the level to fall by half in the phase considered. Low readings indicate rapid decline, high ones slow decline. As a reminder, the bioavailability is dose-corrected exposure relative to a reference, in per cent. Lower therefore signals poor availability. A word on the Vd: it is a proportionality between amount in the body and measured concentration, not a real space. A low value points to confinement near the circulation. For orientation: clearance means the rate of elimination divided by the concentration. Read a low clearance as inefficient removal.
